Common to all, as to type: functional
Assay [1] concerns Candida albicans. The assay can be described thus: Antifungal activity against Candida albicans CPCC400616 assessed as fungal growth inhibition by CLSI based microdilution method.
Another assay concerns Pichia kudriavzevii. Nature of the assay: Antifungal activity against Pichia kudriavzevii assessed as fungal growth inhibition by CLSI based microdilution method. (In broth dilution the organism is exposed to a series of concentrations in liquid medium.)
The subject of assay [2] is Candida albicans. The assay can be described thus: Antifungal activity against fluconazole-resistant Candida albicans 901 assessed as fungal growth inhibition by CLSI based microdilution method.
Assay [3] relates to Candida albicans. Nature of the assay: Antifungal activity against fluconazole-resistant Candida albicans CaR assessed as fungal growth inhibition by CLSI based microdilution method.
Assay [4] has as its system Candida albicans. Nature of the assay: Antifungal activity against fluconazole-resistant Candida albicans 904 assessed as fungal growth inhibition by CLSI based microdilution method.
Assay [5] deals with Candida albicans. The assay can be described thus: Antifungal activity against fluconazole-resistant Candida albicans 17# assessed as fungal growth inhibition by CLSI based microdilution method.
The subject of a further assay is Candida tropicalis. The assay can be described thus: Antifungal activity against Candida tropicalis assessed as fungal growth inhibition by CLSI based microdilution method.
For the next assay, the system named is Nakaseomyces glabratus. The assay can be described thus: Antifungal activity against Candida glabrata assessed as fungal growth inhibition by CLSI based microdilution method.
A further assay concerns Candida parapsilosis. The assay can be described thus: Antifungal activity against Candida parapsilosis assessed as fungal growth inhibition by CLSI based microdilution method. The following applies: Lodderomyces parapsilosis.
Assay [6] deals with Candida albicans. Nature of the assay: Antifungal activity against fluconazole-resistant Candida albicans 632 assessed as fungal growth inhibition by CLSI based microdilution method.
The test system of assay [7] is Candida albicans. The assay can be described thus: Antifungal activity against Candida albicans SC5314 assessed as fungal growth inhibition by CLSI based microdilution method.
The subject of another assay is Cryptococcus neoformans. Nature of the assay: Antifungal activity against Cryptococcus neoformans assessed as fungal growth inhibition by CLSI based microdilution method.

≈ marks a conversion by molar mass, not a printed value. Bounds are passed on as bounds.

What is called MIC is the lowest concentration found to suppress growth. On to `O=c1oc2ccccc2cc1COC(Cn1ccnc1)c1ccc(F)cc1` (stereo not drawn), for which the MIC with Candida albicans [1] came to 0.06 µg/mL (≈ 0.165 µM); in the assay with Pichia kudriavzevii, 1 µg/mL (≈ 2.74 µM); in the assay with Candida albicans [2], 8 µg/mL (≈ 22 µM); in the assay on Candida albicans [3], 0.5 µg/mL (≈ 1.37 µM); with Candida albicans [4], 4 µg/mL (≈ 11 µM); in the assay on Candida albicans [5], 2 µg/mL (≈ 5.49 µM). Moreover, the MIC in the assay with Candida tropicalis was 0.5 µg/mL (≈ 1.37 µM); in the assay on Nakaseomyces glabratus, 1 µg/mL (≈ 2.74 µM); in the assay with Candida parapsilosis it was less than 0.25 µg/mL; with Candida albicans [6] it was 8 µg/mL (≈ 22 µM); in the assay with Candida albicans [7], 0.03 µg/mL (≈ 0.0823 µM); in the assay on Cryptococcus neoformans, 0.125 µg/mL (≈ 0.343 µM).

For `O=c1oc2ccccc2cc1COC(Cn1ccnc1)c1ccc(F)cc1F` (stereo not drawn), the MIC was 0.06 µg/mL (≈ 0.157 µM) in the assay on Candida albicans [1]; 0.5 µg/mL (≈ 1.31 µM) with Pichia kudriavzevii; 16 µg/mL (≈ 41.8 µM) in the assay with Candida albicans [2]; 0.5 µg/mL (≈ 1.31 µM) in the assay with Candida albicans [3]; 2 µg/mL (≈ 5.23 µM) with Candida albicans [4]; 2 µg/mL (≈ 5.23 µM) with Candida albicans [5]. Moreover, the MIC is 1 µg/mL (≈ 2.62 µM) in the assay with Candida tropicalis; 1 µg/mL (≈ 2.62 µM) in the assay on Nakaseomyces glabratus; less than 0.25 µg/mL with Candida parapsilosis; 4 µg/mL (≈ 10.5 µM) with Candida albicans [6]; 0.03 µg/mL (≈ 0.0785 µM) with Candida albicans [7]; 0.06 µg/mL (≈ 0.157 µM) in the assay on Cryptococcus neoformans.

For `O=c1ccc2cc(COC(Cn3ccnc3)c3ccc(F)cc3F)ccc2o1` (stereo not drawn), the MIC with Candida albicans [1] is 0.5 µg/mL (≈ 1.31 µM); in the assay on Pichia kudriavzevii, 8 µg/mL (≈ 20.9 µM); in the assay with Candida albicans [2], 32 µg/mL (≈ 83.7 µM); in the assay with Candida albicans [3], 64 µg/mL (≈ 167 µM); with Candida albicans [4], 32 µg/mL (≈ 83.7 µM); with Candida albicans [5], 4 µg/mL (≈ 10.5 µM). Also, the MIC in the assay on Candida tropicalis turned out to be 2 µg/mL (≈ 5.23 µM); in the assay with Nakaseomyces glabratus, 16 µg/mL (≈ 41.8 µM); in the assay on Candida parapsilosis, 2 µg/mL (≈ 5.23 µM); in the assay on Candida albicans [6], 64 µg/mL (≈ 167 µM); with Candida albicans [7], 0.25 µg/mL (≈ 0.654 µM); with Cryptococcus neoformans, 32 µg/mL (≈ 83.7 µM).

As for `O=c1ccc2cc(COC(Cn3ccnc3)c3ccc(F)cc3)ccc2o1` (stereo not drawn), the minimum inhibitory concentration (MIC) stood at 2 µg/mL (≈ 5.49 µM) in the assay with Candida albicans [1]; 64 µg/mL (≈ 176 µM) with Pichia kudriavzevii; 64 µg/mL (≈ 176 µM) in the assay on Candida albicans [2]; 128 µg/mL (≈ 351 µM) in the assay on Candida albicans [3]; 32 µg/mL (≈ 87.8 µM) in the assay with Candida albicans [4]; 128 µg/mL (≈ 351 µM) in the assay on Candida albicans [5]. Moreover, the MIC is 8 µg/mL (≈ 22 µM) in the assay on Candida tropicalis; 32 µg/mL (≈ 87.8 µM) with Nakaseomyces glabratus; 4 µg/mL (≈ 11 µM) in the assay with Candida parapsilosis; 64 µg/mL (≈ 176 µM) with Candida albicans [6]; 0.5 µg/mL (≈ 1.37 µM) in the assay with Candida albicans [7]; 64 µg/mL (≈ 176 µM) in the assay on Cryptococcus neoformans.
